Test systems include ACHN renal; HCT-15 colon; HT29 colon; IGROV1 ovarian; NCI-H522 lung; OVCAR-8 ovarian; RPMI-8226 leukemia; HCC-2998 colon; NCI/ADR-RES ovarian.
Holding throughout (experiment): NCI anticancer screen, dose series, 48 h

Where “and” joins values, the source holds several entries; their conditions need not be identical. Equal entries are not always repeated.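 Method: 48-hour compound exposure of cells in 96-well plates, five concentrations, linear interpolation of endpoints. GI50 marks 50% less growth. TGI marks complete inhibition of growth.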 Where only a bound is given, the exact number is not on record here.

`Cc1ccc(C)c(NC(=O)C(=O)CC(=O)C2CCOC2=O)c1` (stereo unspecified): the TGI in the assay with ACHN renal, with HCT-15 colon, with HT29 colon, with IGROV1 ovarian, with NCI-H522 lung and in the assay on OVCAR-8 ovarian was more than 100 µM each time. The TGI in the assay on RPMI-8226 leukemia was more than 100 µM.

As to `CC1[C@@H]2[C@@H](C=C3C4CCC5Cc6nc7c(nc6C[C@@]5(C)C4C[C@H](O)[C@]32CO)CC2CCC3C4=C[C@H]5O[C@@]6(O[C@@](C)(CO)C[C@@H]6O)C(C)[C@@]5(O)[C@]4(C)[C@@H](O)CC3[C@]2(C)C7)O[C@]12CCC(C)(C)O2` (stereo partly specified), the GI50 was 1.34 µM in the assay with HCC-2998 colon; 0.0744 µM in the assay with HCT-15 colon; 0.00302 µM with HT29 colon; 0.0049 µM in the assay on IGROV1 ovarian; 0.0228 µM in the assay with NCI-H522 lung; more than 3.65 µM in the assay on OVCAR-8 ovarian. For the same compound, the GI50 with RPMI-8226 leukemia is less than 0.000365 µM. The TGI with HCC-2998 colon was 0.39 µM and > 3.65 µM; in the assay with HCT-15 colon it was 0.81 µM and 0.626 µM; in the assay with HT29 colon it was 0.44 µM and 0.414 µM; in the assay with IGROV1 ovarian it was more than 3.65 µM; with NCI-H522 lung it was 0.429 µM; in the assay with NCI/ADR-RES ovarian, more than 3.65 µM. Further, the TGI with OVCAR-8 ovarian is more than 3.65 µM.

Take `CCC(C)CN1C(=O)NC(C)(Cc2ccccc2)C1=O` (stereo unspecified): the TGI in the assay with ACHN renal, in the assay with HCC-2998 colon, in the assay with HT29 colon, in the assay with NCI-H522 lung and with OVCAR-8 ovarian was more than 100 µM in each case.

Regarding `COc1cc(C(=O)OCCCCCCCCCCC[P+](c2ccccc2)(c2ccccc2)c2ccccc2)ccc1O`, the GI50 was 1.46 µM with ACHN renal; 0.57 µM in the assay with HCC-2998 colon; 1.38 µM with HCT-15 colon; 2.43 µM in the assay on NCI/ADR-RES ovarian; 0.345 µM in the assay on OVCAR-8 ovarian; 0.2 µM with RPMI-8226 leukemia. Besides, the TGI amounted to 2.99 µM in the assay with ACHN renal; 1.92 µM in the assay on HCC-2998 colon; 2.97 µM in the assay on HCT-15 colon; 6.52 µM in the assay on NCI/ADR-RES ovarian; 1.53 µM with OVCAR-8 ovarian; 0.942 µM with RPMI-8226 leukemia.

For `N=C(c1ccccc1)N(c1ccccc1)c1ccccc1`, the TGI in the assay with HCC-2998 colon, in the assay with HT29 colon, in the assay on NCI-H522 lung and in the assay on OVCAR-8 ovarian was more than 100 µM in each case.

As to `O=C1c2ccccc2C2(O)Nc3cc(O)ccc3C12O` (stereo unspecified), the TGI in the assay on ACHN renal, in the assay on HCT-15 colon, in the assay on HT29 colon, in the assay on IGROV1 ovarian, in the assay with NCI-H522 lung and with OVCAR-8 ovarian was more than 100 µM in each case. The compound also yielded a TGI in the assay on RPMI-8226 leukemia of more than 100 µM.

`COc1ccc(/C(=N/NC(N)=O)C2(O)C(=O)Nc3ccc([N+](=O)[O-])cc32)cc1` (stereo unspecified): the TGI with ACHN renal was 30.6 µM; with HCC-2998 colon, more than 100 µM; in the assay on HCT-15 colon, 46.1 µM; in the assay on HT29 colon it was 42.2 µM; with IGROV1 ovarian it was 94.7 µM; with NCI-H522 lung, 41.9 µM. The results for the TGI with OVCAR-8 ovarian and with RPMI-8226 leukemia were 47.7 µM and 74.1 µM, respectively.

Regarding `CC[P+](C)(Cc1ccccc1)c1ccccc1` (stereo unspecified), the TGI in the assay on ACHN renal, in the assay with HCC-2998 colon, in the assay with HCT-15 colon, in the assay with HT29 colon, with IGROV1 ovarian and in the assay with NCI-H522 lung was more than 100 µM each time. The TGI with OVCAR-8 ovarian and with RPMI-8226 leukemia was more than 100 µM throughout.

For the compound `C#CCC[C@@H]1O[C@@]1(C)CC/C=C(\C)CC/C=C/C=O`, the TGI in the assay with ACHN renal was more than 100 µM; with HCT-15 colon it was more than 100 µM; with HT29 colon, more than 100 µM; with IGROV1 ovarian, 49.6 µM; with OVCAR-8 ovarian it was 38.3 µM; with RPMI-8226 leukemia it was 56.4 µM.

With `C=CCC1OC(C)(C)Oc2ccc(OCOCCOC)cc21` (stereo unspecified), the TGI with ACHN renal, in the assay on HCC-2998 colon, with HCT-15 colon, with HT29 colon, in the assay on IGROV1 ovarian and in the assay with OVCAR-8 ovarian was more than 100 µM throughout.

In the case of `N#Cc1cccc(N2C(=O)c3c(c(-c4ccccc4)c(-c4ccc(Sc5ccc(-c6c(-c7ccccc7)c7c(c(-c8ccccc8)c6-c6ccccc6)C(=O)N(c6cccc(C#N)c6)C7=O)cc5)cc4)c(-c4ccccc4)c3-c3ccccc3)C2=O)c1`, the TGI in the assay with ACHN renal, in the assay with HCC-2998 colon, in the assay with HCT-15 colon, in the assay with HT29 colon, with IGROV1 ovarian and in the assay with NCI-H522 lung was more than 100 µM throughout. Further, the TGI in the assay with OVCAR-8 ovarian and in the assay with RPMI-8226 leukemia was more than 100 µM in each case.

Turning to `CC1=C(C(=O)NCc2ccccc2)C(c2ccc(C3C(C(=O)NCc4ccccc4)=C(C)NC(C)=C3C(=O)NCc3ccccc3)cc2)C(C(=O)NCc2ccccc2)=C(C)N1`, the TGI is 29.6 µM with ACHN renal; 35.3 µM with HCC-2998 colon; 39 µM in the assay with HCT-15 colon; 20.3 µM in the assay on HT29 colon; 37.8 µM with IGROV1 ovarian; 10.1 µM in the assay on NCI-H522 lung. For the same compound, the TGI in the assay with OVCAR-8 ovarian was 20.9 µM; in the assay on RPMI-8226 leukemia it was more than 100 µM.

With `Nc1nc(CCC(=O)Nc2cccc(C(F)(F)F)c2)cc(-c2cccc3ccccc23)n1`, the TGI in the assay on ACHN renal, in the assay on HCC-2998 colon, with HCT-15 colon, in the assay with HT29 colon, in the assay with IGROV1 ovarian and in the assay on NCI-H522 lung was more than 100 µM in each case. Moreover, the TGI in the assay with OVCAR-8 ovarian was more than 100 µM.

`CC1CC2C3CC(F)C4=CC(=O)C=CC4(C)C3(F)C(O)CC2(C)C1(O)C(=O)COC(=O)C(C)(C)C` (stereo unspecified): the TGI in the assay with ACHN renal, in the assay on HCC-2998 colon, in the assay with HCT-15 colon, with HT29 colon, in the assay with IGROV1 ovarian and in the assay with NCI-H522 lung was more than 100 µM throughout. In the assay with RPMI-8226 leukemia, this compound yielded a TGI of more than 100 µM.

As to `COc1ccc(S(=O)(=O)NC(C)C(=O)O)cc1` (stereo unspecified), the TGI with ACHN renal, in the assay with HCT-15 colon, in the assay with HT29 colon, in the assay on IGROV1 ovarian, in the assay with NCI-H522 lung and with OVCAR-8 ovarian was more than 100 µM in each case. This compound registered a TGI in the assay on RPMI-8226 leukemia of more than 100 µM.

For the compound `CN(C)c1ccc2c(c1)C(=O)N(OS(=O)(=O)c1ccc([N+](=O)[O-])cc1)C2=O`, the TGI with ACHN renal is 59.9 µM; in the assay with HCC-2998 colon it was 60.3 µM; in the assay with HCT-15 colon it was more than 100 µM; in the assay with HT29 colon, 47.6 µM; in the assay on IGROV1 ovarian it was 43 µM; in the assay with NCI-H522 lung it was 30.5 µM. This compound yielded a TGI in the assay on OVCAR-8 ovarian of 61.2 µM.
